# Reference: patent publication US5229265A, “Process for analyzing clastogenic agents” (Litron Laboratories, priority 1990, dated 1993)
# “And” between values parts separate entries of the source, which are not always exact repeats. Equal entries are not always repeated.
# Key:
# [1] = test system: micronucleated cells in blood; assay: Effects of bleeding on the sensitivity of the micronucleus assay, MMS; assay type: in vivo, mouse; conditions: for MNs in 96 hr blood, MMS(D): MMS 100 μg/g body wt at 0 and 48 hrs; for Increase in MNs (D - C): MMS minus saline means
# Description: Earlier, it was pointed out that obtaining an initial blood sample (t=0) provides an important background measurement of the number of micronucleii in each mouse. Obtaining an initial blood sample also increases the sensitivity of the assay, due to the stimulation of the stem cells to replenish the lost blood. Clastogen action should be increased if cells are actively turning over, rather than subsisting in a quiscent state. In the absence of bleeding, new PCEs are introduced into the blood cells at a low steady state level and MNs are introduced at a spontaneous background level. […] Practioners in the art are unaware of this increase in sensitivity due to initial bleeding. […] In this experiment, control mice were dosed with 0.9% saline, whereas treated mice received MMS (100 μg/g body wt.) at 0 hr and at 48 hrs. The first set of mice (the L series) were not bleed prior to obtaining a 96 hour blood sample. The MN-cell level resulting from MMS treatment would reflect the probability of clastogen action in the steady state stem cell turnover rate. The second set of mice (the M series) were bleed 166 hrs prior to the initial clastogen dose. In this set, the minus 166 hr bleeding will cause stem cell proliferation and differentiation, but the system should begin to return to steady state once the blood is replenished. The third set (the K series) was bleed at t=0hr where upon dosing was initiated, and a final blood sample was obtained at t=96 hrs.
# Since the L series was not initially bleed, the initial blood samples were not used in the analysis of the M or K series for equal comparison with L. Rather, only the 96 hour blood samples were analyzed in each set. The difference, D, between the saline controls and the dosed mice should reflect the level of turnover of the stem cells and the suseptibility of said cells to clastogen action in each case. […] Although the M series had 166 hrs to recover from the initial bleeding before being dosed with MMS, the stem cells still appear to be fairly active, and an intermediate level of micronucleated cells was obtained (i.e. 513 events above background). Finally, the highest activity was obtained with the K-series wherein the mice were bleed and immediately dosed. In this case, the stem cells are turning over at a high rate to replenish the blood at a time when the concentration of MMS is also high. […] The results in Tables 2 and 4 provide additional experimental evidence that bleeding stimulates stem cell proliferation and differentiation. […] This increase in sensitivity could be particularly important in cases where a week clastogen is being investigated.
# [2] = test system: polychromatic cells (PCEs); assay: PCE count in blood by flow cytometry; assay type: in vivo, mouse; conditions: MMS 100 μg/g body weight IP at 0 and 48 hours
# Method: When two dyes are used for simultaneous micronucleus and PCE discrimination, the cell suspension is prepared as follows: The Hoechst 33258 working solution described above is prepared and is filtered through an 0.2 micron Acro-disk (Gilman Sciences). In addition, a propidium iodide (PI) working solution is prepared (5 mg PI/100 ml phosphate buffered saline (PBS)). A buffer-dye solution is then prepared by adding the PI solution (100 μl) and Hoechst 33258 working solution (25 μl) to PBS (867.5 μl). The resulting buffer-dye solution is then dispensed (992.5 μl) into samples tubes. A sample of fixed blood (15 μl) is then added to the corresponding tube. When blood from a malaria (P. berghei) infected mouse was fixed and stained by this procedure, the bivariate pattern shown in FIG. 1B resulted, in which a stronger red fluorescence signal was obtained. In this case, good resolution is achieved if BSA is omitted from the stained cell suspension. The pH of the stained solution is important for good fluorescence emission profiles and resolution of the different cell populations. With Hoechst 33258 and propidium iodide, good results can be obtained in the range from pH 6 to pH 8. Lower or higher pH levels cause a broadening of the fluorescence patterns which adversely affect the resolution of the PCes and micronucleated cells. Operationally,it is advisable to store the fixed samples and analyze freshly stained samples.
# Although it is inappropriate to directly compare the number of MNs in the 0 hr and 96 hr samples because of this PCE change, it is possible to normalize the data to take into account said change. An increase in the number of PCEs will cause a decrease in the total number of MNs counted in the PCE window for a 96 hour sample. […]
# Another staining embodiment of this invention involves the use of dual parameter data acquisition in conjunction with two dyes, Hoechst 33258 and propidium iodide so as to analyze both MNs and PCEs. […] Propidium iodide endows the PCEs with a strong red fluorescence signal which pulls them out of the RBC contour. […]
# [3] = K Series: initial bleeding at t = 0
# [4] = M Series: initial bleeding at -166 hr
smiles,measurement,setting,value
"COS(C)(=O)=O [MMS, methyl methanesulfonate]","MNs in 96 hr blood, MMS(D)",[1]; [3],1829 and 1794 and 1812
same,Increase in MNs (D - C),[1]; [3],777
same,"MNs in 96 hr blood, MMS(D)",[1]; L Series: no initial bleeding,1352 and 1390 and 1331 and 1357 ± 30
same,Increase in MNs (D - C),[1]; L Series: no initial bleeding,314
same,"MNs in 96 hr blood, MMS(D)",[1]; [4],1776 and 1541 and 1673 and 1663 ± 118
same,Increase in MNs (D - C),[1]; [4],513
same,PCEs (96 hr),[2]; Hoechst 33258 & propidium iodide,"17,684 PCEs per 500,000 cells and 15,408 PCEs per 500,000 cells and 13,095 PCEs per 500,000 cells and 14,356 PCEs per 500,000 cells"
same,PCE Factor (K) (96 hr/0 hr),"[2]; PCEs 96 hr/PCEs 0 hr per 100,000 total cells",2.49 and 1.36 and 2.07 and 2.22 and 2.12
